From patent US20060252786A1, “Nicotinic-opioid synergy for analgesia” (priority 2004, published 2006)
“And” between values parts separate entries of the source, which are not always exact repeats. Equal values may be shown once. Read-outs that look alike come from different tables or passages of the source.

Columns and labels:
[1] = system: antinociceptive action of nicotine; conditions: in vivo; cited from earlier work
[2] = system: α4β2 type nicotinic receptors; conditions: binds more tightly; cited from earlier work
[3] = system: tail flick antinociception; conditions: cited from earlier work
[4] = cited from earlier work
post-incisional pain = system: post-incisional pain
Description: Each of these studies will be nearly identical to the original study (FIG. 5). However, the studies will look at the following dosing paradigms: • 1. Animals will be randomized to receive nicotine 0.25 to 1.5 mg/kg, or placebo 2 hours prior to the hind-paw surgery, or 2 hours after the hind paw surgery (reproducing the original study). […] The doses will be determined in a dose-finding portion of the interaction study. The interaction surface will be modeled and tested to identify any benefit from preoperative administration of nicotine. • 2. […] The study will help to document whether there is any benefit to maintaining nicotine with a constant infusion vs. a simple bolus injection. Expected Results and Potential Issues

TNF-α, IL2 and IL6 = conditions: anticipated; nicotine 0-5 mg/kg after surgical incision
[5] = 3 mg intranasally, non-smoking volunteers; cited from earlier work
[6] = Description: (§1) This study was a randomized, double blind clinical trial with a 24 hour data collection period. The study was approved by the institutional review board at Columbia University. Written informed consent was obtained from all patients. Women between the ages of 18 and 50, scheduled to have uterine surgery (either myomectomy or hysterectomy) through a low transverse incision were eligible to be included. We chose to only study women in this preliminary study because animal studies have identified gender differences in nicotine's analgesic action 10-12. Patients were excluded who had smoked during the past year, had preexisting pain syndromes, hypertension, or any history of cardiovascular disease. All patients were American Society of Anesthesiologists class 1 or 2. The patients were instructed before surgery that they would be asked about their pain with a numerical analog score where 0 is no pain and 10 is the worst pain that they could imagine. […] No other medications were given in the preoperative period.
All patients were given a standardized anesthetic as follows: anesthetic premedication was administered in the operating room consisting of 1-2 μg/kg fentanyl and 1 mg vecuronium. Anesthesia was induced with propofol 2 mg/kg and succinylcholine 2 mg/kg. After intubation of the trachea, anesthesia was maintained with a fentanyl infusion of 1-2 μg/kg/hr and isoflurane titrated to adequate anesthetic depth by the clinical anesthesiologist, who was not aware of the treatment group. Muscle relaxation was effected with vecuronium. All patients were given dolasetron 12.5 mg prophylactically to prevent nausea and vomiting. At the completion of surgery, the anesthesiologist was given an opaque sealed container with either a nicotine nasal spray (3 mg—Nicotrol NS, Pharmacia, Peapack, N.J.) or saline nasal spray prepared according to a random number table by the research pharmacy. The study drug was administered by the anesthesiologist as 3 jets in each nostril (3 mg nicotine or an equal volume of saline) at a 45 degree angle after the muscle relaxant was reversed and while the surgeon was closing the fascia. […]
In previous studies using analog pain scores the standard deviation was approximately 2 numerical analog pain units. We calculated that in order to detect a difference of 2 numerical analog pain units, with α=0.05 and 80% power we would need to enroll 17 patients per group (StatMate, GraphPad software, San Diego, Calif., USA). […] The change in pain scores over time was determined with a One Way Analysis of Variance for repeated measures, where time was considered a continuous variable (Analyse-it for Microsoft Excel; Analyse-it Software, ltd., Leeds, England). […]

[7] = remark: listed apart in the source
Description: (§2) All patients were given a standardized anesthetic as follows: anesthetic premedication was administered in the operating room consisting of 1-2 μg/kg fentanyl and 1 mg vecuronium. Anesthesia was induced with propofol 2 mg/kg and succinylcholine 2 mg/kg. After intubation of the trachea, anesthesia was maintained with a fentanyl infusion of 1-2 μg/kg/hr and isoflurane titrated to adequate anesthetic depth by the clinical anesthesiologist, who was not aware of the treatment group. Muscle relaxation was effected with vecuronium. All patients were given dolasetron 12.5 mg prophylactically to prevent nausea and vomiting. At the completion of surgery, the anesthesiologist was given an opaque sealed container with either a nicotine nasal spray (3 mg—Nicotrol NS, Pharmacia, Peapack, N.J.) or saline nasal spray prepared according to a random number table by the research pharmacy. The study drug was administered by the anesthesiologist as 3 jets in each nostril (3 mg nicotine or an equal volume of saline) at a 45 degree angle after the muscle relaxant was reversed and while the surgeon was closing the fascia.
Blood pressure was measured with a non-invasive automatic oscillometric blood pressure cuff every 5 minutes for the first hour (Agilent Technologies, Andover, Mass.). Heart rate was monitored continuously with a pulse oximeter and electrocardiographic leads and recorded every five minutes for the first hour (Agilent Technologies, Andover, Mass.). All testing was conducted by the same investigator (D.D.). Both the investigator recording data and the nurse administering medication were blinded to treatment group.
(§3) In previous studies using analog pain scores the standard deviation was approximately 2 numerical analog pain units. We calculated that in order to detect a difference of 2 numerical analog pain units, with α=0.05 and 80% power we would need to enroll 17 patients per group (StatMate, GraphPad software, San Diego, Calif., USA). 10 patients were enrolled per group as a pilot study requested by our IRB. […] The change in pain scores over time was determined with a One Way Analysis of Variance for repeated measures, where time was considered a continuous variable (Analyse-it for Microsoft Excel; Analyse-it Software, ltd., Leeds, England). All values are reported as mean (SD).

[8] = system: post-incisional pain, injured hind paw; conditions: for Meas (von Frey response): IP, individual measurements
[9] = nicotine nasal spray 3 mg, PCA morphine
postoperative pain = system: postoperative pain
Description: as §1, §2
Five minutes after extubation and every 5 minutes thereafter for 60 minutes, the patient was asked to report the pain that they were experiencing with a numerical analog score from 0-10. A pain report was also obtained at 2 and 24 hours. A PCA pump was inserted into the patient's intravenous circuit prior to emergence from anesthesia. […] No other postoperative analgesic medications were used.
The data were analyzed per protocol. Two subjects from whom informed consent was obtained were not studied for postoperative pain. In one case because of a protocol violation in the standard anesthetic the patient was not randomized and in the second case, the anesthesiologist was not certain of study drug dose. The decision to exclude these patients was made prior to the postoperative period and this no data was obtained.
as §3

[10] = 3 mg intranasally (Guthrie, 1999)

Question: With `C[N+](C)(C)CCCCCC[N+](C)(C)C` [hexamethonium] as the molecule, how does the “effect on the antinociceptive action of nicotine” value [1] read?
Answer: no effect

Question: Which “binding selectivity for α4β2 over α3β4, α7 or muscle type nicotinic receptors” value [2] does the source give for `CNCC/C=C/c1cccnc1` [metanicotine] here?
Answer: over 10,000 times

Question: What about the “antinociception in the tail flick assay” value ([3]; dose of 10 mg/kg) of the same molecule?
Answer: midrange antinociception

Question: Which arterial peak concentration [4, 10] does the source give for `CN1CCCC1c1cccnc1` (stereo not drawn) [nicotine] here?
Answer: 100 µM

Question: And the “steady state venous concentration” value [4, 10]?
Answer: 30 µM

Question: And the “time to peak effect” value ([4]; intranasal)?
Answer: five

Question: And the “time until effect is dissipated” value ([4]; intranasal)?
Answer: about one

Question: What about the “benefit from pre-operative administration (expected)” value (post-incisional pain; 2 hours prior to hind-paw surgery) of the same molecule?
Answer: no benefit

Question: And the “analgesic response with constant infusion (expected)” value (post-incisional pain; micro-osmotic pump vs bolus injection)?
Answer: more stable level of analgesic response

Question: What about the “levels of TNF-α, IL2 and IL6 compared with placebo group (expected)” value (TNF-α, IL2 and IL6) of the same molecule?
Answer: lower levels

Question: And the “average increase in systolic blood pressure” value [5]?
Answer: 7 mM of mercury

Question: What about the “change in diastolic blood pressure” value [5] of the same molecule?
Answer: no change

Question: And the “change in heart rate” value [5]?
Answer: no change

Question: What about the “morphine used during the first 24 hours after surgery” value ([6]; nicotine nasal spray 3 mg, difference vs placebo not statistically significant) of the same molecule?
Answer: 41 ± 9 mg

Question: What about the “cumulative morphine utilization during the first hour” value ([6]; nicotine nasal spray 3 mg, mean (SD), P<0.05 vs control) of the same molecule?
Answer: 6 (5) mg

Question: What about the “overall morphine usage compared to the placebo group” value ([6]; nicotine nasal spray 3 mg, p<0.01) of the same molecule?
Answer: about half

Question: And the “reduction in morphine requirement in the first hour” value ([6]; nicotine vs placebo)?
Answer: 50%

Question: And the “systolic blood pressure compared with placebo” value ([7]; first hour after surgery)?
Answer: lower systolic blood pressure

Question: What about the “diastolic blood pressure compared with placebo” value ([7]; first postoperative hour) of the same molecule?
Answer: no difference

Question: What about the “heart rate compared with placebo” value ([7]; first postoperative hour) of the same molecule?
Answer: no difference

Question: And the systolic blood pressure ([7]; first postoperative hour, mean (SD), placebo 122 (3), P<0.001)?
Answer: 105 (3)

Question: And the “hemodynamic consequences of a single dose of nicotine” value ([7]; pilot study)?
Answer: No hemodynamic consequences have been identified

Question: And the “Meas (von Frey response)” value ([8]; Morphine 0, Nicotine 0.5 (mg))?
Answer: 0 gms (4×) and 0.25 gms

Question: What about the “Meas (von Frey response)” value ([8]; Morphine 0, Nicotine 1 (mg)) of the same molecule?
Answer: 1.95 gms (2×) and 2.7 gms (3×)

Question: What about the “Meas (von Frey response)” value ([8]; Morphine 0, Nicotine 1.5 (mg)) of the same molecule?
Answer: 2.7 gms (2×) and 4.9 gms (2×) and 4.65 gms

Question: And the “Meas (von Frey response)” value ([8]; Morphine 0, Nicotine 2 (mg))?
Answer: 2.7 gms (3×) and 4.9 gms (2×)

Question: And the “Meas (von Frey response)” value ([8]; Morphine 0, Nicotine 3 (mg), upper threshold 15)?
Answer: 15 gms

Question: And the “Meas (von Frey response)” value ([8]; Morphine 0, Nicotine 5 (mg), upper threshold 15)?
Answer: 15 gms

Question: What about the “ED20 for primary hyperalgesia” value ([8]; single IP injection) of the same molecule?
Answer: 1.5 mg/kg

Question: What about the “peak withdrawal latency compared with saline group” value (tolerance to morphine; morphine infusion 2 mg/kg/hr, data not shown) of the same molecule?
Answer: higher

Question: And the “tolerance to morphine after pretreatment with a single dose of nicotine” value (tolerance to morphine; nicotine 1.5 mg/kg, morphine continuous infusion 18 hours, P<0.001)?
Answer: Tolerance is reduced

Question: What about the “incidence of nausea and vomiting compared with placebo” value [9] of the same molecule?
Answer: did not differ

Question: And the “peak pain scores (VAS, out of 10)” value (postoperative pain; 20 non-smoking women after gynecological surgery, reduced from 8 (placebo))?
Answer: 5

Question: And the “time at which peak pain score occurred” value (postoperative pain; after surgery, nicotine nasal spray 3 mg, PCA morphine)?
Answer: 35 min

Question: And the “peak pain score (numerical analog score 0-10)” value (postoperative pain; nicotine nasal spray 3 mg at end of surgery, PCA morphine available, first hour, mean (SD))?
Answer: 5.3 (1.6) units

Question: What about the “pain score twenty-four hours after emergence” value (postoperative pain; nicotine nasal spray 3 mg single dose, PCA morphine, mean (SD), P<0.01 vs placebo) of the same molecule?
Answer: 1.5 (0.5)

Question: And the “pain scores during the first hour compared with placebo” value (postoperative pain; nicotine nasal spray just prior to emergence, P<0.001)?
Answer: lower pain scores at all times during the first hour

Question: What about the “average VAS score in the first hour” value (postoperative pain; preliminary data set, placebo 6.5) of the same molecule?
Answer: approximately 4.5

Question: And the “duration of analgesic effect” value (postoperative pain; single 3 mg intranasal dose, last assessment in the study)?
Answer: at least 24 hours

Question: For `CCN1C[C@]2(COC(=O)c3ccccc3N3C(=O)C[C@H](C)C3=O)CC[C@H](OC)[C@@]34[C@@H]5C[C@H]6[C@H](OC)[C@@H]5[C@](O)(C[C@@H]6OC)[C@](O)([C@@H](OC)[C@H]23)[C@@H]14` [MLA], which “effect on the antinociceptive response to nicotine” value ([3]; tail flick assay) is on record?
Answer: no effect

Question: For `CN1CC[C@]23c4c5ccc(O)c4O[C@H]2[C@@H](O)C=C[C@H]3[C@H]1C5` [morphine], which antinociceptive efficacy alone ([8]; 129J strain relatively insensitive to morphine) is on record?
Answer: relatively ineffective alone

Question: And the “Meas (von Frey response)” value ([8]; Morphine 0.1 mg/kg, Nicotine 0)?
Answer: 1.8 gms (2×) and 0.75 gms (2×) and 2.95 gms

Question: What about the “Meas (von Frey response)” value ([8]; Morphine 1 mg/kg, Nicotine 0) of the same molecule?
Answer: 1.95 gms (3×) and 1.7 gms and 0.9 gms and 5.2 gms (2×) and 5.95 gms and 0.75 gms and 2.95 gms

Question: What about the “Meas (von Frey response)” value ([8]; Morphine 5 mg/kg, Nicotine 0) of the same molecule?
Answer: 0.9 gms (3×) and 1.1 gms (2×) and 7.9 gms (3×) and 7.65 gms (2×)

Question: And the “Meas (von Frey response)” value ([8]; Morphine 10 mg/kg, Nicotine 0)?
Answer: 1.1 gms (3×) and 0.45 gms and 2.15 gms

Question: What about the “Meas (von Frey response)” value ([8]; Morphine 13 mg/kg, Nicotine 0) of the same molecule?
Answer: 4.65 gms (2×) and 7.65 gms (3×)

Question: What about the “Meas (von Frey response)” value ([8]; Morphine 20 mg/kg, Nicotine 0) of the same molecule?
Answer: 7.9 gms and 4.9 gms (3×) and 8.1 gms

Question: And the “reduction in peak effect (plateau of analgesic action)” value (tolerance to morphine; morphine 2 mg/kg/hr subcutaneous pump, nicotine 1 mg/kg IP or saline, heat withdrawal latency, 18 hour period)?
Answer: 64±14%
